Test results from US10626108B2, “Heterocyclic indoles for use in influenza virus infection” (Janssen Sciences Ireland UC, priority 2015, dated 2020).

What was measured:
[1] = in vitro; conditions: dog
[2] = test system: influenza virus A/Taiwan/1/86 (H1N1); assay: organism not typed; assay type: cell-based; conditions: 72 h; MDCK cells infected with influenza A/Taiwan/1/86 (H1N1), MOI 0.001 or 0.01; CPE via ATP levels three days post-virus exposure

Structure (SMILES)	CC50 at 3 days [1]	IC50 [2]
Cc1nc(-c2c[nH]c3ncncc23)nc(N[C@@H]2CCC[C@H](NC(=O)c3ccccn3)C2)c1F [Compound 21]	> 25000 nM	1 nM
O=C(N[C@H]1CCC[C@@H](Nc2cnnc(-c3c[nH]c4c(F)cc(F)cc34)n2)C1)N1CCCC1 [Compound 28]	15500 nM	8 nM
Cc1nc(-c2c[nH]c3c(F)cc(F)cc23)nc(N[C@H]2CCC[C@@H](NC(=O)c3cnn[nH]3)C2)c1F [Compound 15]	3400 nM	0.2 nM
O=C(N[C@H]1CCC[C@@H](Nc2nc(-c3c[nH]c4c(F)cc(F)cc34)nc(C(=O)O)c2F)C1)c1cnn[nH]1 [Compound 36]	> 25000 nM	7 nM
O=C(O)[C@H]1C2CCC(CC2)[C@@H]1Nc1cnnc(-c2c[nH]c3c(F)cc(F)cc23)n1 (racemic) [Compound 6]	> 5000 nM	130 nM
Cc1nc(-c2c[nH]c3c(F)cc(F)cc23)nc(N[C@H]2CCC[C@@H](NC(=O)c3csc(C(=O)O)n3)C2)c1F [Compound 29]	21000 nM	2 nM
Cc1nc(-c2c[nH]c3c(F)cc(F)cc23)nc(N[C@H]2CCC[C@@H](NC(=O)c3cnn(C)c3)C2)c1F [Compound 14]	> 25000 nM	2 nM
O=C(N[C@H]1CCC[C@@H](Nc2cncc(-c3c[nH]c4c(F)cc(F)cc34)n2)C1)N1CCCC1 [Compound 25]	9700 nM	26 nM
Cc1nc(-c2c[nH]c3c(F)cc(F)cc23)nc(N[C@H]2CCC[C@@H](NC(=O)c3cn(C)cn3)C2)c1F [Compound 13]	10400 nM	1 nM
